Experiments:
[1] = biological target: T1, Mitogen-activated protein kinase kinase kinase 15 (Homo sapiens) (UniProt Q6ZN16); experiment: Inhibition of MAP3K15 at 1 uM
T1 sequence (whole entry): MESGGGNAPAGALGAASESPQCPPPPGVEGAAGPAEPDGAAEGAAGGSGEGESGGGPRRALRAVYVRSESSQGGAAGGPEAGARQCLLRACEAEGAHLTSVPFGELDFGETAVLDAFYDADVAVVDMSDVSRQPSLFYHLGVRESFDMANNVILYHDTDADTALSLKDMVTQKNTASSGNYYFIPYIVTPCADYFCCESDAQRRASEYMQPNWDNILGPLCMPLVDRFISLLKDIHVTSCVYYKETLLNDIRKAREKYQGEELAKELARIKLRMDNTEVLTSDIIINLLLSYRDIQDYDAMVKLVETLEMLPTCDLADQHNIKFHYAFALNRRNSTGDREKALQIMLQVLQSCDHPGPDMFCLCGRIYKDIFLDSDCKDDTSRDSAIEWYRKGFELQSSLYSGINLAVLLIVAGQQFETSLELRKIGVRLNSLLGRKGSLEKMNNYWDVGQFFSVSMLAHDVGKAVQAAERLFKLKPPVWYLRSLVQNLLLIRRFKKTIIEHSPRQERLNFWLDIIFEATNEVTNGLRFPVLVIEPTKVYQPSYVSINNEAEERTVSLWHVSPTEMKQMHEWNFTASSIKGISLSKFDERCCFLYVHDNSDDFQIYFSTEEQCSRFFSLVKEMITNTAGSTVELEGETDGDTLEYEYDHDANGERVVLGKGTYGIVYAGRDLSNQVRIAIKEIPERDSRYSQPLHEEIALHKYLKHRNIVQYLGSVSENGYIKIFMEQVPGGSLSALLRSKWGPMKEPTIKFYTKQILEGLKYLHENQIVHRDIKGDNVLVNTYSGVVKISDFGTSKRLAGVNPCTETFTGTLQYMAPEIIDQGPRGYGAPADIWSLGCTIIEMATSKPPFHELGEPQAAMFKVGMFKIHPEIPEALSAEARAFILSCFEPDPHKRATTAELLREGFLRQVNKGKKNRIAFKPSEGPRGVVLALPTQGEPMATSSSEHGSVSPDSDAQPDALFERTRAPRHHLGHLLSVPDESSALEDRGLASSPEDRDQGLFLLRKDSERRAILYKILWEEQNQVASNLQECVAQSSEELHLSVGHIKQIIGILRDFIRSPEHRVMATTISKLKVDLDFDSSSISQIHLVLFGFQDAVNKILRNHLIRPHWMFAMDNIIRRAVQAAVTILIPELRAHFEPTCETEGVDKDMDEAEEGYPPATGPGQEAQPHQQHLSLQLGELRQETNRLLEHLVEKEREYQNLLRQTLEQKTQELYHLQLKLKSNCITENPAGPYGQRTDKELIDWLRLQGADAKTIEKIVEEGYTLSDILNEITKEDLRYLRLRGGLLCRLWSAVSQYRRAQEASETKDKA

[2] = biological target: T2, Cyclin-dependent kinase 11A (Homo sapiens) (UniProt Q9UQ88); experiment: Inhibition of CDC2L2 at 1 uM
T2 sequence (whole entry): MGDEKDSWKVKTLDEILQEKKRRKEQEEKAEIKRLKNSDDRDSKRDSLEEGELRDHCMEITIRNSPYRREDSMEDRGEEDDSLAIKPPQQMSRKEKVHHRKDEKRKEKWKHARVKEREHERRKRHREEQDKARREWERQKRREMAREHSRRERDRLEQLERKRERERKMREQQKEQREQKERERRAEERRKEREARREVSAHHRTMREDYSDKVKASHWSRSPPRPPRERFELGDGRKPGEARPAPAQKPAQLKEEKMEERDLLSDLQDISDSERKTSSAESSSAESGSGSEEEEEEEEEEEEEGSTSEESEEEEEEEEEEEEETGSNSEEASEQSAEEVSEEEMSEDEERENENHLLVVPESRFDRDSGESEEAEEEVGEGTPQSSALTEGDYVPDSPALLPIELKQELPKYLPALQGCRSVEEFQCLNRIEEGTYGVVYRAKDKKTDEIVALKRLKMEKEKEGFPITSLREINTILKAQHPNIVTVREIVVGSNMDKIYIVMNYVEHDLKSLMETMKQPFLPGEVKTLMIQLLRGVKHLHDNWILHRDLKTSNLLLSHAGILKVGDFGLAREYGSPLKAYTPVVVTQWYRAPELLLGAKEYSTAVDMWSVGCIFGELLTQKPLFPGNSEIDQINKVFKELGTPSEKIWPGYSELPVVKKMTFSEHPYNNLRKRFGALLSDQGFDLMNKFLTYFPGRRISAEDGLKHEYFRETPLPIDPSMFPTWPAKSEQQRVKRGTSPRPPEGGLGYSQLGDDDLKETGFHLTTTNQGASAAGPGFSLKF

[3] = biological target: T3, Serine/threonine-protein kinase D2 (Homo sapiens) (UniProt Q9BZL6); experiment: Inhibition of PRKD2 at 1 uM
T3 sequence (whole entry): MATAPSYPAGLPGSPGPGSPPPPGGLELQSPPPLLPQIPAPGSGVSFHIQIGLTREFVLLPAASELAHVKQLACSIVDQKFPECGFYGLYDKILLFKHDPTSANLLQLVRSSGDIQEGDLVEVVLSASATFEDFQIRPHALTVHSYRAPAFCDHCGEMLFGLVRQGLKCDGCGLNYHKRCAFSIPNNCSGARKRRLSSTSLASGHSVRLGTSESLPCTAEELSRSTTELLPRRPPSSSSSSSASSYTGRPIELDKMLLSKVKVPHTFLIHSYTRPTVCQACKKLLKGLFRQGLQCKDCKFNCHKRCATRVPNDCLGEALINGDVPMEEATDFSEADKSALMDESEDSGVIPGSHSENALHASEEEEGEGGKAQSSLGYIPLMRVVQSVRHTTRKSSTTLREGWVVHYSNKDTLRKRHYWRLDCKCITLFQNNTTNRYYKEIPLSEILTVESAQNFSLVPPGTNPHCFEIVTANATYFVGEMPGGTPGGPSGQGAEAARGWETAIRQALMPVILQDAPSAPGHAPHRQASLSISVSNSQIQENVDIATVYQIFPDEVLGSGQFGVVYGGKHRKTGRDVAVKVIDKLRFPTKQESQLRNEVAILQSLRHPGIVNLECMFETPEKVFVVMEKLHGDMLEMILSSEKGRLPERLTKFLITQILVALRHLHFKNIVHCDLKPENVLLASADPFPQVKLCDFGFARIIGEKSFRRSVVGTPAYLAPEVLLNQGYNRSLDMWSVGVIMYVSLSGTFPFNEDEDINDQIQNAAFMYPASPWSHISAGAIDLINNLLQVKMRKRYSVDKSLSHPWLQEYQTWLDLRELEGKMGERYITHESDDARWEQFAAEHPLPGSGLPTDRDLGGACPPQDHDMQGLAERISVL

Row | SMILES | inhibition [1] [%] | inhibition [2] [%] | inhibition [3] [%]
1 | COC1CCN(C(=O)c2ccc(-c3cnc4c(c3)N(Cc3cc(Cl)ccc3C(F)(F)F)CCN4)cc2)CC1 | – | – | < 50
2 | O=C(c1ccc(-c2cnc3c(c2)N(Cc2cc(Cl)ccc2C(F)(F)F)CCN3)cc1)N1CCCCC1 | – | – | < 50
3 | FC(F)(F)c1ccc(Cl)cc1CN1CCNc2ncc(-c3ccnc(N4CCNCC4)c3)cc21 | < 50 | < 50 | < 50
4 | CC(=O)N1CCN(c2cc(-c3cnc4c(c3)N(Cc3cc(Cl)ccc3C(F)(F)F)CCN4)ccn2)CC1 | < 50 | < 50 | < 50
5 | O=C(O)c1ccc(-c2cnc3c(c2)N(Cc2cc(Cl)ccc2C(F)(F)F)CCN3)cc1 | – | – | < 50
6 | O=C(c1ccc(-c2cnc3c(c2)N(Cc2cc(Cl)ccc2C(F)(F)F)CCN3)cc1)N1CCC(N2CCCC2)CC1 | – | – | < 50

The remaining lines, values ahead:

Row | inhibition [1] [%] | inhibition [2] [%] | inhibition [3] [%] | SMILES
7 | < 50 | < 50 | < 50 | CN1CCN(c2ccc(-c3cnc4c(c3)N(Cc3cc(Cl)ccc3Cl)CCN4)cn2)CC1
8 | < 50 | < 50 | < 50 | CN1CCN(c2ccc(-c3cnc4c(c3)N(Cc3cc(Cl)ccc3C(F)(F)F)CCN4)cn2)CC1
9 | < 50 | < 50 | < 50 | CN1CCN(c2ccc(-c3cnc4c(c3)N(Cc3c(F)ccc(F)c3Cl)CCN4)cn2)CC1
10 | < 50 | < 50 | < 50 | CN1CCN(c2ccc(-c3cnc4c(c3)N(Cc3cc(F)ccc3F)CCN4)cn2)CC1
